Reference: publication PMC9414913, “Tyrosinase Inhibitors Derived from Chemical Constituents of Dianella ensifolia” (Plants, 2022)

molecular target: mushroom tyrosinase (Agaricus bisporus, UniProt C7FF04); experiment: In vitro mushroom tyrosinase inhibition assay; assay type: biochemical; conditions: compared with arbutin (positive control)
Experimental: The mushroom tyrosinase inhibitory assay has been described in detail previously. Briefly, various concentrations of test compounds (100 μL) and 2 mM L-tyrosine (80 μL, Sigma-Aldrich, St. Louis, MO, USA) were mixed in 96-well plates. 20 μL of mushroom tyrosinase (1000 U/mL, Sigma-Aldrich, USA) was added to initiate the assay. The absorbance of the mixture was measured at 490 nm using a microplate reader (μQuant™, BioTek Winooski, VT, USA).

Sequence of mushroom tyrosinase (G1K3P4 entry or part of it): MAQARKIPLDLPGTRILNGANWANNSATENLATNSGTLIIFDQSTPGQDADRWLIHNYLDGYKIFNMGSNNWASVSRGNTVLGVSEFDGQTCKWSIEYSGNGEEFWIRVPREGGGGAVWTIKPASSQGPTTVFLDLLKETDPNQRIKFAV
Sequence of mushroom tyrosinase (C7FF04 2-392): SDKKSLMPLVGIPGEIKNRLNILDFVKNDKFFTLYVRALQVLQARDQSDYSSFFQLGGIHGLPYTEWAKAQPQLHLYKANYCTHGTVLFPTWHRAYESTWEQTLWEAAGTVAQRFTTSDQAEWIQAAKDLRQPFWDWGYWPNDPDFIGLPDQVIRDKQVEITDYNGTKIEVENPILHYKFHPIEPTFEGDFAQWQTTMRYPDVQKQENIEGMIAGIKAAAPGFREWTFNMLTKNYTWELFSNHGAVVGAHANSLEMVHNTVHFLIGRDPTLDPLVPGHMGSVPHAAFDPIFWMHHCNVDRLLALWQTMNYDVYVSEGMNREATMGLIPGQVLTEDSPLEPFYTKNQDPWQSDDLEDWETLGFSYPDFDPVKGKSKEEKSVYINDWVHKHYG

Row | SMILES | mushroom tyrosinase inhibitory effect, in words
1 | COc1ccc2c(c1)O[C@H](c1ccccc1O)CC2 [Compound 3, (2S)-2’-hydroxy-7-methoxyflavan] | moderate or weak activity
2 | CC(=O)c1c(C)cc2c(c1O)C(=O)CCC2O (stereo not shown) [Compound 41, 7-acetyl-4,8-dihydroxy-6-methyl-1-tetralone] | moderate or weak activity
3 | Oc1ccc([C@@H]2CCc3ccc(O)cc3O2)cc1 [Compound 8, (2S)-7,4’-dihydroxyflavan] | moderate or weak activity
4 | COc1ccc2c(c1C)O[C@H](c1cc(O)c(OC)c(O)c1)CC2 [Compound 12, (2S)-3’,5’-dihydroxy-7,4’-dimethoxy-8-methylflavan] | moderate or weak activity
5 | COc1ccc2c(c1C)OC(C1(O)C=CC(=O)CC1)CC2 [Compound 4, (2S,1′S)-4-hydroxy-4-(7-methoxy-8-methylchroman-2-yl)-cyclohex-2-enone] | moderate or weak activity
6 | COc1ccc2c(c1C)O[C@H](c1ccc(O)c(O)c1)CC2 [Compound 2, (2S)-3’,4’-dihydroxy-7-methoxy-8-methylflavan] | more substantial inhibitory effect against mushroom tyrosinase than arbutin
7 | Cc1c(O)ccc2c1O[C@H](c1ccc(O)cc1)CC2 [Compound 10, (2S)-7,4’-dihydroxy-8-methylflavan] | moderate or weak activity
8 | O=c1cc(-c2ccc(O)c(O)c2)oc2cc(O)cc(O)c12 [Compound 20, luteolin] | more substantial inhibitory effect against mushroom tyrosinase than arbutin
9 | O=C1C[C@@H](c2ccc(O)cc2)Oc2cc(O)ccc21 [Compound 15, (2S)-liquiritigenin] | more substantial inhibitory effect against mushroom tyrosinase than arbutin
10 | COc1ccc([C@@H]2CCc3cc(OC)c(O)cc3O2)cc1O [Compound 13, (2S)-7,3′-dihydroxy-6,4’-dimethoxyflavan] | moderate or weak activity
11 | O=c1cc(-c2ccc(O)cc2)oc2cc(O)cc(O)c12 [Compound 21, apigenin] | more substantial inhibitory effect against mushroom tyrosinase than arbutin
12 | COc1cc2c(cc1OC)O[C@H](c1ccc(O)cc1)CC2 [Compound 1, (2S)-4’-hydroxy-6,7-dimethoxyflavan] | moderate or weak activity

same assay, conditions: substrate 2 mM L-tyrosine; absorbance at 490 nm; read-out: IC50 (mushroom tyrosinase inhibitory effect)

Row | SMILES | IC50 [µM]
13 | O=C1C[C@@H](c2ccc(O)cc2)Oc2cc(O)ccc21 [Compound 15, (2S)-liquiritigenin] | 109 ± 6.2
